From the NIST ThermoML archive (doi:10.1021/je060371g)

Settings: Fluid (supercritical or subcritical phases), Buoyancy - hydrostatic balance with magnetic suspension - one sinker

FC(F)Cl [chlorodifluoromethane]
specific volume [m3/kg]
Settings | 298.2 K | 323.2 K | 348.2 K | 373.2 K
10000 kPa | 0.000815 | 0.00087 | 0.000955 | 0.001091
20000 kPa | 0.000787 | 0.000831 | 0.000887 | 0.000967
30000 kPa | 0.000771 | 0.00081 | 0.000852 | 0.000907
40000 kPa | 0.000755 | 0.00079 | 0.000828 | 0.000875
50000 kPa | 0.000743 | 0.000773 | 0.000807 | 0.000842
75000 kPa | 0.000717 | 0.000743 | 0.000768 | 0.000797
100000 kPa | 0.000698 | 0.000715 | 0.000742 | 0.000765
125000 kPa | 0.000682 | 0.000699 | 0.000719 | 0.000741
150000 kPa | 0.00067 | 0.000683 | 0.000701 | 0.000722
175000 kPa | 0.000657 | 0.00067 | 0.000686 | 0.000705
200000 kPa | 0.000646 | 0.00066 | 0.000674 | 0.000689
225000 kPa | 0.000638 | 0.000651 | 0.000663 | 0.000677
250000 kPa | 0.00063 | 0.000643 | 0.000655 | 0.000667
275000 kPa | 0.000624 | 0.000635 | 0.000646 | 0.000658
300000 kPa | 0.000617 | 0.000628 | 0.000639 | 0.00065
325000 kPa | 0.000611 | 0.000621 | 0.000632 | 0.000642
350000 kPa | 0.000606 | 0.000616 | 0.000625 | 0.000636
375000 kPa | 0.0006 | 0.00061 | 0.000619 | 0.000629
400000 kPa | 0.000596 | 0.000605 | 0.000614 | 0.000623
425000 kPa | 0.000591 | 0.0006 | 0.000608 | 0.000617
450000 kPa | 0.000587 | 0.000595 | 0.000603 | 0.000612
475000 kPa | 0.000582 | 0.00059 | 0.000598 | 0.000606
500000 kPa | 0.000579 | 0.000586 | 0.000594 | 0.000602
